Data taken from PubChem BioAssay (NCI).
Values joined by “and” are separate entries in the source; they are usually repeats but may differ in a detail not shown here. Identical values can stand only once.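 1) Cells in 96-well plates. 2) Compound, 48 h, 5 concentrations. 3) Linear interpolation between surrounding doses. 4) Unreached endpoint = highest concentration. The concentration for 50% growth inhibition is given as GI50. TGI is the concentration that stops growth completely.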

Legend:
Test in all cases: growth of human tumour cells (NCI), 48 h
[1] = system: SF-295 CNS
[2] = system: OVCAR-5 ovarian
[3] = system: ACHN renal
[4] = system: RPMI-8226 leukemia
[5] = system: SW-620 colon
[6] = system: SK-MEL-28 melanoma
[7] = system: SNB-19 CNS
[8] = system: MDA-MB-231 breast
[9] = system: T-47D breast
[10] = system: DU-145 prostate

Row | SMILES | TGI [1] | TGI [2] | TGI [3] | TGI [4] [µM] | TGI [5] | TGI [6] | TGI [7] | TGI [8] [µM] | TGI [9] [µM] | TGI [10] [µM] | GI50 [1] [µM] | GI50 [8] [µM] | GI50 [2] [µM] | GI50 [3] [µM] | GI50 [4] [µM] | GI50 [10] [µM] | GI50 [5] [µM] | GI50 [6] [µM] | GI50 [7] [µM] | GI50 [9] [µM]
1 | N=C(N)SCc1cn2ccccc2n1 | > 100 µM | > 100 µM | > 100 µM | > 100 | > 100 µM | > 100 µM | > 100 µM |  |  |  |  |  |  |  |  |  |  |  |  | 
2 | C/C(=N/N(C=O)C[n+]1ccccc1)C(CN(CC(C)C)CC(C)C)C(=O)Nc1ccc(C)cc1C (stereo not drawn) | > 100 µM | > 100 µM | > 100 µM | > 100 | > 100 µM | > 100 µM | > 100 µM |  |  |  |  |  |  |  |  |  |  |  |  | 
3 | N#Cc1ccc(-c2nc(C#N)c(N)o2)cc1 | > 10 µM |  | > 10 µM | > 10 | > 10 µM | > 10 µM | > 10 µM | > 10 | > 10 | > 10 |  |  |  |  |  |  |  |  |  | 
4 | CON(C)C(=O)C(C)NC(=O)OCc1ccccc1 (stereo not drawn) | > 100 µM | > 100 µM | > 100 µM | > 100 | > 100 µM | > 100 µM | > 100 µM |  |  | > 100 |  |  |  |  |  |  |  |  |  | 
5 | COc1ccc(C(C2=C(C)C(=O)c3ccccc3C2=O)c2ccc(C(C)C)cc(=O)c2O)cc1 (stereo not drawn) | 23 µM | 7.53 µM | 9.96 µM | > 100 | > 100 µM |  |  |  |  |  |  |  |  |  |  |  |  |  |  | 
6 | O=C(C(=O)c1ccc(Cc2ccc(C(=O)C(=O)c3ccccc3)cc2)cc1)c1ccccc1 | > 100 µM | > 100 µM | > 100 µM |  | > 100 µM | > 100 µM | > 100 µM |  |  |  |  |  |  |  |  |  |  |  |  | 
7 | N#CC(C#N)SCc1ccccc1 | > 100 µM | > 40.3 µM | > 100 µM | > 38.6 | > 100 µM | > 100 µM | > 100 µM |  | > 100 | 55.3 |  |  |  |  |  |  |  |  |  | 
8 | Nc1cc(N)c2nc(-c3ccccc3)c(Oc3ccc(F)cc3)nc2c1 | 38.5 µM | 47.6 µM | 85.9 µM | 46.4 | 50.1 µM | 46.5 µM | 33.8 µM | 28.8 |  | 36.8 | 20.3 | 3.87 | 20.6 | 21.8 | 12.2 | 17.2 | 19.5 | 19.4 | 17.3 | 
9 | Cc1cc(O)c2c(c1)C(O)(c1ccc3c(c1O)C(=O)c1c(O)cc(C)cc1C3(O)C1OC(CO)C(O)C(O)C1O)c1cccc(O)c1C2=O (stereo not drawn) | 24.9 µM | 32.3 µM | 25.8 µM | > 100 | 34 µM | 28.9 µM | 30.2 µM |  |  |  |  |  |  |  |  |  |  |  |  | 
10 | Nc1nc2c(ncn2Cc2ccccc2CCO)c(=O)[nH]1 | > 100 µM | > 100 µM | > 100 µM | > 100 | > 100 µM | > 100 µM | > 100 µM |  |  |  |  |  |  |  |  |  |  |  |  | 
11 | Cc1cc(Cl)ccc1NC(=O)C(=O)Cc1nc2ccc(C(=O)c3ccccc3)cc2[nH]c1=O | > 100 µM |  | > 100 µM |  | > 100 µM | > 100 µM | > 100 µM |  |  |  |  |  |  |  |  |  |  |  |  | 
12 | CC12CC3(C)CC(C)(C1)CC(N=[N+]=[N-])(C2)C3 | > 100 µM | > 100 µM | > 100 µM | > 100 | > 100 µM | > 100 µM | > 100 µM |  |  |  |  |  |  |  |  |  |  |  |  | 
13 | COc1cc(Nc2ccnc(N3CCN(c4ccnc5cc(Cl)ccc45)CC3)n2)cc(OC)c1 | 2.13 µM | > 100 µM | > 100 µM |  | > 27.8 µM | > 100 µM | > 100 µM | > 100 |  | > 100 | 0.289 | 0.567 | 2.41 | 2.04 |  | 3.25 | 0.601 | 1.39 | 2.64 | 
14 | COc1cc2nncc(Sc3cnnc4ccccc34)c2cc1OC | 91.6 µM | 64.6 µM | 51.9 µM | 77.7 | 41.3 µM | 60.9 µM | 42.3 µM |  |  |  |  |  |  |  |  |  |  |  |  | 
15 | COc1cc(/C=C2\CN(C)CC3=C2Nc2nc(SC)[nH]c(=O)c2C3c2cc(OC)c(OC)c(OC)c2)cc(OC)c1OC (stereo not drawn) | 5.47 µM | 16.7 µM | 3.55 µM |  | 4.41 µM | 4.29 µM | 21.9 µM | 13.1 | 22.6 | 12.1 | 2.24 | 3.14 | 4.83 | 1.93 |  | 3.6 | 2 | 2.1 | 8.65 | 3.69
16 | CSc1nc2c(c(O)c(C)c(=O)n2C2OC(COC(C)=O)C(OC(C)=O)C(OC(C)=O)C2OC(C)=O)c(=O)n1C (stereo not drawn) | > 100 µM | > 100 µM | > 100 µM | > 100 | > 100 µM | > 100 µM | > 100 µM |  |  |  |  |  |  |  |  |  |  |  |  | 
17 | O=c1nc(-c2ccccc2)c2c3c(cccn13)CCC2 | > 100 µM | > 100 µM | > 100 µM | > 100 | > 100 µM | > 100 µM | > 100 µM |  |  |  |  |  |  |  |  |  |  |  |  | 
18 | COc1cc(C2c3cc4c(cc3[C@@H](Nc3ccc(N(C)C)cc3)[C@H]3COC(=O)C23)OCO4)cc(OC)c1O (stereo partly drawn) | 0.483 µM and 1.47 µM | 6.21 µM and 16.2 µM | 0.999 µM and 1.34 µM |  | 14 µM and 16.5 µM | 14.9 µM and 28.2 µM | 11.2 µM and 11.8 µM |  |  |  | 0.223 |  | 1.96 | 0.0694 |  |  | 1.92 | 12.1 | 0.441 | 
19 | O=C(c1ccccc1)c1c(CC(O)c2cccnc2)n(C(=O)c2ccccc2)c2ccccc12 (stereo not drawn) | 35.6 µM | 37.6 µM | 82.7 µM | 44.2 | 74.9 µM | 31.5 µM | 63.1 µM |  |  |  |  |  |  |  |  |  |  |  |  | 
20 | CC[O-].CC[O-].O=C1C(=C([O-])c2ccccc2)C(=O)c2ccccc21.O=C1C(=C([O-])c2ccccc2)C(=O)c2ccccc21.[Ti+4] | > 100 µM | > 100 µM | > 100 µM | > 100 | > 100 µM | > 10 µM | 93 µM |  |  |  | 98.4 |  | > 100 | > 100 | 42.5 |  | > 100 | > 10 | 29 | 
21 | O=C1[C@@H](c2ccc(Cl)cc2)[C@H]2CC=C[C@H]2N1O | > 100 µM |  |  | > 100 | > 100 µM | > 100 µM | > 100 µM |  |  |  |  |  |  |  |  |  |  |  |  | 
